Molecular target: T1, Recombinant human PAD4 (2-663) (Homo sapiens, UniProt Q9UM07)
T1 construct: Recombinant human PAD4 (2-663) was expressed in E. coli; made in house; host or cells: E. coli
Experiment: PAD4 Inhibition Assay
Format: biochemical
Conditions: 60 mins pre-incubation at RT; substrate BAEE with CaCl2; fluorescent signal (λex 405/λem 460)
Description: Protein: Recombinant human PAD4 (2-663) was expressed in E. coli as an N-terminal Strep-tag and C-terminal 6-his tag fusion protein. Protein was purified using Strep-tactin resin followed by size exclusion chromatography. Tags were not removed during purification. Activity of the protein was determined using ammonia quantification assay.
PAD4 enzyme (10 μL) was diluted to concentration of 75 nM in assay buffer A (100 mM HEPES, pH 8, 50 mM NaCl, 2 mM DTT, 0.6 mg/mL BSA and 0.5% DMSO) and added to wells containing 10 μL of various concentrations of test compound, or DMSO vehicle in buffer A with 1.5% final DMSO concentration in a Corning high volume 384 well black plate. Following 60 mins pre-incubation at RT with gentle shaking, the reaction was initiated by the addition of 10 μL of substrate buffer containing 3 mM N-α-benzoyl-L-arginine ethyl ester (BAEE) and 600 μM CaCl2) in assay buffer A. The reaction was stopped after 60 mins with the addition of 15 μL stop/detection buffer containing 7.5 mM phthalaldehyde, 50 mM EDTA and 7.5 mM DTT in assay buffer A. Quenched reactions were incubated at RT for 45 mins before measuring fluorescent signal (λex 405/λem 460) on an Envision plate reader (Perkin Elmer Life Sciences, Waltham, Mass., USA).

T1 sequence (Q9UM07 2-663): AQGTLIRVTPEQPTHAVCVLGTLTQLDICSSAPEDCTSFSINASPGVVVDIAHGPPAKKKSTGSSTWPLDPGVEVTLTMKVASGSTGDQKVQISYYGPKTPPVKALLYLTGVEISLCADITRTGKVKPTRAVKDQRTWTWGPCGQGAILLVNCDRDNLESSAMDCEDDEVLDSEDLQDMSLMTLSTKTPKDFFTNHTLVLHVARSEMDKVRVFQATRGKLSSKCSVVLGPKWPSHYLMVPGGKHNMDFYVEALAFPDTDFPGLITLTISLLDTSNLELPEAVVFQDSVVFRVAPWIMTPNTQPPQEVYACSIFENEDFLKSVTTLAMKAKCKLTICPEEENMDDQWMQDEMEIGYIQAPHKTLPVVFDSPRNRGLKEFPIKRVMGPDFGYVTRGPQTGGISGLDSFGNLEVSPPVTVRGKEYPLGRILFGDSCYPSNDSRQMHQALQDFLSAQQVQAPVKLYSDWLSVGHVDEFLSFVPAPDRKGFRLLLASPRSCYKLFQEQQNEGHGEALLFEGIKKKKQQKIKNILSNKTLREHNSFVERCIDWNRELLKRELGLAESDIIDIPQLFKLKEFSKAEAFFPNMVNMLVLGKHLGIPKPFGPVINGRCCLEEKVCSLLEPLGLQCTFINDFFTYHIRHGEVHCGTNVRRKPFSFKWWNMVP

Structure (SMILES)	IC50
C[C@H]1CCNC[C@@H]1NC(=O)c1cc2cc(Cl)c(F)c(F)c2[nH]1 [Example 41, 5-Chloro-6,7-difluoro-N-((3R,4S)-4-methylpiperidin-3-yl)-1H-indole-2-carboxamide]	10 to 100 µM
N[C@H]1CN(C(=O)c2cc3cc(Cl)c(F)c(F)c3[nH]2)CC[C@@H]1F [Example 42, ((3S,4S)-3-Amino-4-fluoropiperidin-1-yl)(5-chloro-6,7-difluoro-1H-indol-2-yl)methanone]	10 to 100 µM
N[C@@H]1CCN(C(=O)c2cc3cc(Cl)c(Cl)cc3[nH]2)C1 [Example 44, (R)-(3-Aminopyrrolidin-1-yl)(5,6-dichloro-1H-indol-2-yl)methanone]	1 to 10 µM
N[C@@H]1CCN(C(=O)c2cc3cc(Cl)cc(Cl)c3[nH]2)C1 [Example 45, (R)-(3-Aminopyrrolidin-1-yl)(5,7-dichloro-1H-indol-2-yl)methanone]	10 to 100 µM
N[C@@H]1CCN(C(=O)c2cc3cc(Br)ccc3[nH]2)C1 [Example 48, (R)-(3-Aminopyrrolidin-1-yl)(5-bromo-1H-indol-2-yl)methanone]	1 to 10 µM
N[C@@H]1CCN(C(=O)c2cc3cc(F)c(F)cc3[nH]2)C1 [Example 50, (R)-(3-Aminopyrrolidin-1-yl)(5,6-difluoro-1H-indol-2-yl)methanone]	10 to 100 µM
C[C@@H]1NC[C@@H]1NC(=O)c1cc2cc(Cl)c(F)c(F)c2[nH]1 [Example 54, 5-chloro-6,7-difluoro-N-((2S,3S)-2-methylazetidin-3-yl)-1H-indole-2-carboxamide]	1 to 10 µM
C[C@H]1NC[C@H]1NC(=O)c1cc2cc(Cl)c(F)c(F)c2[nH]1 [Example 55, 5-chloro-6,7-difluoro-N-((2R,3R)-2-methylazetidin-3-yl)-1H-indole-2-carboxamide]	1 to 10 µM
O=C(c1cc2cc(Cl)c(F)c(F)c2[nH]1)N1C[C@H]2CNC[C@H]21 [Example 56, (1R,5S)-3,6-diazabicyclo[3.2.0]heptan-6-yl(5-chloro-6,7-difluoro-1H-indol-2-yl)methanone]	1 to 10 µM

Further lines, results first:

IC50	Structure (SMILES)
> 100 µM	N[C@H]1CN(C(=O)c2cc3cc(Cl)c(F)c(F)c3[nH]2)CC[C@H]1F [Example 43, ((3S,4R)-3-Amino-4-fluoropiperidin-1-yl)(5-chloro-6,7-difluoro-1H-indol-2-yl)methanone]
1 to 10 µM	N[C@@H]1CCN(C(=O)c2cc3ccc(Cl)cc3[nH]2)C1 [Example 46, (R)-(3-Aminopyrrolidin-1-yl)(6-chloro-1H-indol-2-yl)methanone]
10 to 100 µM	N[C@@H]1CCN(C(=O)c2cc3cc(Cl)cc(Br)c3[nH]2)C1 [Example 47, (R)-(3-Aminopyrrolidin-1-yl)(7-bromo-5-chloro-1H-indol-2-yl)methanone]
10 to 100 µM	N[C@@H]1CCN(C(=O)c2cc3cc(F)ccc3[nH]2)C1 [Example 49, (R)-(3-Aminopyrrolidin-1-yl)(5-fluoro-1H-indol-2-yl)methanone]
10 to 100 µM	CN(C(=O)c1cc2cc(Cl)c(F)c(F)c2[nH]1)[C@H]1CCNC1 [Example 51, (S)-5-chloro-6,7-difluoro-N-methyl-N-(pyrrolidin-3-yl)-1H-indole-2-carboxamide]
10 to 100 µM	CN(C(=O)c1cc2cc(Cl)c(F)c(F)c2[nH]1)C1CNC1 [Example 52, N-(azetidin-3-yl)-5-chloro-6,7-difluoro-N-methyl-1H-indole-2-carboxamide]
10 to 100 µM	CC1(NC(=O)c2cc3cc(Cl)c(F)c(F)c3[nH]2)CNC1 [Example 53, 5-chloro-6,7-difluoro-N-(3-methylazetidin-3-yl)-1H-indole-2-carboxamide]
1 to 10 µM	O=C(c1cc2cc(Cl)c(F)c(F)c2[nH]1)N1CC[C@H]2CNC[C@H]21 [Example 57, (5-chloro-6,7-difluoro-1H-indol-2-yl)((3aS,6aS)-hexahydropyrrolo[3,4-b]pyrrol-1(2H)-yl)methanone]

Reference: patent publication US12018033B2, “Inhibitors of protein arginine deiminases” (Forward Therapeutics, Inc., priority 2018, dated 2024)
